Values quoted from earlier work, collected in patent US20180271949A1, “THERAPEUTIC TREATMENT FOR NEUROTROPHIC KERATOPATHY” (priority 2017, published 2018).

Assays:
[1] = system: corneal epithelium wound healing; conditions: with substance-P; several pre-clinical studies; Nishida 2009
decubitus ulcers = conditions: topical; Van Ort 1976
[2] = system: experimentally-induced superficial skin wounds; conditions: topical; diabetic and non-diabetic individuals; Greenway 1999
corneal abrasions = conditions: topical, diabetic rats
[3] = system: sub-basal plexus corneal nerves; conditions: topical; diabetic mice; Chen 2013
[4] = system: cultured sheets of corneal epithelial cells; conditions: Shanley 2004
corneal ulcers = conditions: systemic administration; humans; Aynsley 1945

Row | Substance | promotion of corneal epithelium wound healing [1] | healing of decubitus ulcers (decubitus ulcers) | healing of experimentally-induced superficial skin wounds [2] | corneal sensation (corneal abrasions; Zagon 2007) | wound healing after corneal abrasions (corneal abrasions; Zagon 2007, Klocek 2009) | loss of sub-basal plexus corneal nerves [3] | cell migration and closure of artificial wounds [4] | healing of corneal ulcers (corneal ulcers)
1 | IGF-1: Insulin-like growth factor-1, modulator of corneal wound healing | act synergistically with substance-P | – | – | – | – | – | – | –
2 | insulin: insulin, topical, systemic or added in vitro, as used in cited literature studies | – | improve healing | improve healing | improves corneal sensation | improves wound healing | slow the loss | promoted cell migration and closure of artificial wounds | improved healing
